Results as given in patent US11672814B2, “NGNA compositions and methods of use” (priority 2008, dated 2023).
Like-named read-outs stand apart in the source and are kept apart here.

How the values were obtained:
HSV-1, SC-16 = assay: Virucidal assay, HSV-1 titrated on Vero cells (CPE readout); type: cell-based, Herpes Simplex Virus type 1; settings: 10 minutes; for Sample titer: control virus titer 6.25
[1] = system: Influenza B virus B/Malaysia/2506/2004; type: cell-based; settings: 10 minutes, MDCK
HRV-16 = assay: Virucidal assay, Rhinovirus titrated on Wi-38 cells (CPE readout); type: cell-based, Human Rhinovirus; settings: 10 minutes
Feline Calicivirus (FCV) = assay: Virucidal assay, Norovirus surrogate virus titrated on CRFK cells (CPE readout); type: cell-based; settings: 10 minutes

`O=C(CO)N[C@H]1[C@H]([C@H](O)[C@H](O)CO)O[C@](O)(C(=O)O)C[C@@H]1O` [NGNA, n-glycolylneuraminic acid] gave a Virus reduction (HSV-1, SC-16; NGNA 10 nM) of 0.00%, a Sample titer (HSV-1, SC-16; NGNA 10 nM) of 7.00 log10 TCID50/ml and a Virus reduction (HSV-1, SC-16; NGNA 10 μM) of 0.00%. For the same molecule, the Sample titer (HSV-1, SC-16; NGNA 10 μM) was 6.25 log10 TCID50/ml, the Virus reduction (HSV-1, SC-16; NGNA 10 mM) was 99.98% and the Sample titer (HSV-1, SC-16; NGNA 10 mM) was 2.50 log10 TCID50/ml. For the same molecule, the Virus reduction ([1]; NGNA 10 nM) was 0.00%, the Virus reduction ([1]; NGNA 10 μM) was 0.00% and the Virus reduction ([1]; NGNA 10 mM) was 99.00%. The Virus reduction (HRV-16; NGNA 10 nM) was 90.00%, the Sample titer (HRV-16; NGNA 10 nM, control virus titer 4.50) was 3.50 log10 TCID50/ml and the Virus reduction (HRV-16; NGNA 10 μM) was 90.00%. It also gave a Sample titer (HRV-16; NGNA 10 μM, control virus titer 4.50) of 3.50 log10 TCID50/ml, a Virus reduction (HRV-16; NGNA 10 mM) of 99.44% and a Sample titer (HRV-16; NGNA 10 mM, control virus titer 4.75) of 2.50 log10 TCID50/ml. For the same molecule, the Virus reduction (Feline Calicivirus (FCV); NGNA 10 nM) was 0.00%, the Sample titer (Feline Calicivirus (FCV); NGNA 10 nM, control virus titer 5.50) was 5.50 log10 TCID50/ml and the Virus reduction (Feline Calicivirus (FCV); NGNA 10 μM) was 0.00%. It also gave a Sample titer (Feline Calicivirus (FCV); NGNA 10 μM, control virus titer 5.50) of 5.50 log10 TCID50/ml, a Virus reduction (Feline Calicivirus (FCV); NGNA 10 mM) of 82.21% and a Sample titer (Feline Calicivirus (FCV); NGNA 10 mM, control virus titer 5.25) of 4.50 log10 TCID50/ml.
